Source: ChEMBL document CHEMBL6115029, “Discovery of Daraxonrasib (RMC-6236), a Potent and Orally Bioavailable RAS(ON) Multi-selective, Noncovalent Tri-complex Inhibitor for the Treatment of Patients with Multiple RAS-Addicted Cancers” (J Med Chem, 2025)
≈ marks a conversion by molar mass, not a printed value.

What was measured:
[1] = Inhibition of 6His-tagged KRAS G12D mutant(1 to 169 residues)/GST-tagged GMPPNP-bound BRAF RBD (155 to 229 reisudes)/Cyclophilin A (unknown origin) tri-complex protein-protein interaction incubated for 3 hrs by TR-FERT based disruption assay; parameters: species or system Homo sapiens
[2] = Binding affinity to Cyclophilin A/Avi-tagged KRAS G12V mutant (1 to 169 residues) (unknown origin) assessed as dissociation constant by SPR analysis; parameters: species or system Homo sapiens
[3] = Kinetic solubility of compound in PBS at pH 7.4 measured after 5 hrs by UV analysis; type: physicochemical; settings: read-out: Kinetic_solubility
[4] = Inhibition of ERK1/2 phosphorylation in human NCI-H358 cells harboring KRAS G12C mutant incubated for 4 hrs by AlphaLISA assay; type: cell-based; settings: NCI-H358, 4 h
[5] = Inhibition of ERK1/2 phosphorylation in human ASPC1 cells harboring KRAS G12D mutant incubated for 4 hrs by AlphaLISA assay; type: cell-based; settings: ASPC1, 4 h
[6] = target: Peptidyl-prolyl cis-trans isomerase A (Homo sapiens, UniProt P62937); experiment: Binding affinity to Avi-tagged Cyclophilin A (unknown origin) assessed as dissociation constant by SPR analysis
Sequence of Peptidyl-prolyl cis-trans isomerase A (P62937 whole entry, the tested form may be a part): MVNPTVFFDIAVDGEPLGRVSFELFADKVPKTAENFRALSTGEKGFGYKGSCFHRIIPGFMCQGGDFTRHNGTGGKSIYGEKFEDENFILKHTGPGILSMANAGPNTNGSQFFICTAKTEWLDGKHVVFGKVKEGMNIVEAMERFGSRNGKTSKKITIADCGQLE

[7] = Inhibition of 6His-tagged wildtype KRAS (1 to 169 residues)/GST-tagged GMPPNP-bound BRAF RBD (155 to 229 reisudes)/Cyclophilin A (unknown origin) tri-complex protein-protein interaction incubated for 3 hrs by TR-FERT based disruption assay; parameters: species or system Homo sapiens
[8] = Metabolic stability in mouse liver microsomes assessed as half-life at 2 uM measured upto 60 mins in presence of NADPH by LC-MS/MS analysis; type: ADME, Microsome
CAPAN-1 = experiment: Cytotoxicity against human CAPAN-1 cells harboring KRAS G12V mutant cultured as 2D cells assessed as reduction in cell viability incubated for 120 hrs by CellTiter-Glo luminescence assay; type: functional, cell-based; settings: CAPAN-1, 120 h
NCI-H1975 = experiment: Cytotoxicity against human NCI-H1975 cells harboring wildtype KRAS cultured as 2D cells assessed as reduction in cell viability incubated for 120 hrs by CellTiter-Glo luminescence assay; type: functional, cell-based; settings: NCI-H1975, 120 h
[9] = Binding affinity to Cyclophilin A/Avi-tagged KRAS G12D mutant (1 to 169 residues) (unknown origin) assessed as dissociation constant by SPR analysis; parameters: species or system Homo sapiens
ASPC1 = experiment: Cytotoxicity against human ASPC1 cells harboring KRAS G12D mutant cultured as 2D cells assessed as reduction in cell viability incubated for 120 hrs by CellTiter-Glo luminescence assay; type: functional, cell-based; settings: ASPC1, 120 h
[10] = Clearance in female BALB/c mouse at 1 mg/kg, iv measured after 24 hrs by LC-MS/MS analysis; type: ADME, organism-based; settings: in vivo
[11] = Binding affinity to Cyclophilin A/Avi-tagged KRAS G12C mutant (1 to 169 residues) (unknown origin) assessed as dissociation constant by SPR analysis; parameters: species or system Homo sapiens
[12] = Apparent permeability across apical to basolateral side in human Caco-2 cells at 5 uM incubated for 2 hrs by LC-MS/MS analysis; type: ADME, cell-based
[13] = Inhibition of 6His-tagged KRAS G12V mutant(1 to 169 residues)/GST-tagged GMPPNP-bound BRAF RBD (155 to 229 reisudes)/Cyclophilin A (unknown origin) tri-complex protein-protein interaction incubated for 3 hrs by TR-FERT based disruption assay; parameters: species or system Homo sapiens
[14] = Efflux ratio of apparent permeability in human Caco-2 cells at 5 uM incubated for 2 hrs by LC-MS/MS analysis; type: ADME, cell-based
[15] = Half-life in female BALB/c mouse at 1 mg/kg, iv measured after 24 hrs by LC-MS/MS analysis; type: ADME, organism-based; settings: in vivo
[16] = Oral bioavailability in female BALB/c mouse at 10 mg/kg measured after 24 hrs by LC-MS/MS analysis; type: ADME, organism-based; settings: in vivo
[17] = Inhibition of ERK1/2 phosphorylation in human CAPAN-1 cells harboring KRAS G12V mutant incubated for 4 hrs by AlphaLISA assay; type: cell-based; settings: CAPAN-1, 4 h
[18] = Inhibition of 6His-tagged KRAS G12C mutant(1 to 169 residues)/GST-tagged GMPPNP-bound BRAF RBD (155 to 229 reisudes)/Cyclophilin A (unknown origin) tri-complex protein-protein interaction incubated for 3 hrs by TR-FERT based disruption assay; parameters: species or system Homo sapiens
A-375 = experiment: Cytotoxicity against human A-375 cells assessed as reduction in cell viability incubated for 120 hrs by CellTiter-Glo luminescence assay; type: functional, cell-based; settings: A-375, 120 h
NCI-H358 = experiment: Cytotoxicity against human NCI-H358 cells harboring KRAS G12C mutant cultured as 2D cells assessed as reduction in cell viability incubated for 120 hrs by CellTiter-Glo luminescence assay; type: functional, cell-based; settings: NCI-H358, 120 h
[19] = Kinetic solubility of compound in PBS at pH 5.0 measured after 5 hrs by UV analysis; type: physicochemical; settings: read-out: Kinetic_solubility
[20] = Lipophilicity, logD of compound at pH 7.4 by Agilent 1290 II uPLC analysis; type: physicochemical; settings: buffer
[21] = Oral bioavailability in female BALB/c mouse plasma at 10 mg/kg measured after 24 hrs by LC-MS/MS analysis; type: ADME, organism-based
[22] = Oral bioavailability in female BALB/c mouse blood at 10 mg/kg measured after 24 hrs by LC-MS/MS analysis; type: ADME, organism-based
[23] = Clearance in female BALB/c mouse plasma at 1 mg/kg, iv measured after 24 hrs by LC-MS/MS analysis; type: ADME, organism-based
[24] = Clearance in female BALB/c mouse blood at 1 mg/kg, iv measured after 24 hrs by LC-MS/MS analysis; type: ADME, organism-based
[25] = Inhibition of 6His-tagged wildtype HRAS (1 to 169 residues)/GST-tagged GMPPNP-bound BRAF RBD (155 to 229 reisudes)/Cyclophilin A (unknown origin) tri-complex protein-protein interaction incubated for 3 hrs by TR-FERT based disruption assay; parameters: species or system Homo sapiens
[26] = Inhibition of 6His-tagged NRAS G61K mutant(1 to 169 residues)/GST-tagged GMPPNP-bound BRAF RBD (155 to 229 reisudes)/Cyclophilin A (unknown origin) tri-complex protein-protein interaction incubated for 3 hrs by TR-FERT based disruption assay; parameters: species or system Homo sapiens
[27] = Inhibition of 6His-tagged KRAS G12R mutant(1 to 169 residues)/GST-tagged GMPPNP-bound BRAF RBD (155 to 229 reisudes)/Cyclophilin A (unknown origin) tri-complex protein-protein interaction incubated for 3 hrs by TR-FERT based disruption assay; parameters: species or system Homo sapiens
[28] = Inhibition of 6His-tagged KRAS G61H mutant(1 to 169 residues)/GST-tagged GMPPNP-bound BRAF RBD (155 to 229 reisudes)/Cyclophilin A (unknown origin) tri-complex protein-protein interaction incubated for 3 hrs by TR-FERT based disruption assay; parameters: species or system Homo sapiens
[29] = Inhibition of 6His-tagged wildtype NRAS (1 to 169 residues)/GST-tagged GMPPNP-bound BRAF RBD (155 to 229 reisudes)/Cyclophilin A (unknown origin) tri-complex protein-protein interaction incubated for 3 hrs by TR-FERT based disruption assay; parameters: species or system Homo sapiens
[30] = (§1) In vivo inhibition of MAPK signaling pathway in female BALB/c nude mouse xenografted with human NCI-H441 cells harboring wildtype KRAS/KRAS G12V mutant assessed as decrease in DUSP6 mRNA expression in tumor at 200 mg/kg, po administered as single dose and measured after 2 hrs by qPCR analysis relative to control; type: functional
[31] = as §1, with “100” for “200”; type: functional

Row | SMILES | IC50 [1] | Kd [2] | solubility kinetic at 5 h [3] | EC50 [4] | EC50 [5] | Kd [6] | IC50 [7] | half-life at 2 µM [8] | EC50 (CAPAN-1) | EC50 (NCI-H1975) | Kd [9] | EC50 (ASPC1) | Papp A→B at 2 h, 5 µM [12] | IC50 [13] | efflux ratio at 2 h, 5 µM [14] | EC50 [17] | IC50 [18] | EC50 (A-375) | EC50 (NCI-H358) | logD [20] | also measured
1 | CCn1c(-c2cccnc2[C@H](C)OC)c2c3cc(ccc31)-c1csc(n1)C[C@H](NC(=O)[C@H](C(C)C)N(C)C(C)=O)C(=O)N1CCC[C@H](N1)C(=O)OCC(C)(C)C2 | ≥ 21200 nM | 2.7 µM | 6 µM (≈ 4.72 µg/mL) | 116 nM | 857 nM | 313 nM | 4920 nM | 6 min | 149 nM | 57 nM | 5.05 µM | ≥ 715 nM | 0.02 ×10⁻⁶ cm/s | 3550 nM | 13.6 | 32 nM | 1970 nM | > 10 µM | 199 nM |  | clearance [10]: 95 mL/min/kg; Kd [11]: 1540 nM; half-life [15]: 36 min; bioavailability [16]: ≤ 0.4%
2 | CCn1c(-c2cccnc2[C@H](C)OC)c2c3cc(ccc31)-c1csc(n1)C[C@H](NC(=O)[C@H]1C[C@@H]1C)C(=O)N1CCC[C@H](N1)C(=O)OCC(C)(C)C2 | 927 nM |  | 3 µM (≈ 2.14 µg/mL) | 68 nM | 818 nM | 1760 nM | 344 nM | 53 min | 129 nM | 69 nM |  | 236 nM | 10.7 ×10⁻⁶ cm/s | 165 nM | 1 | 25 nM | 117 nM | 8.37 µM | 83 nM | 4.7 | solubility kinetic at 5 h [19]: < 2 µM; clearance [10]: 10 mL/min/kg; half-life [15]: 54 min; bioavailability [16]: 75%
3 | CCn1c(-c2cc(N3CCN(CCOC)CC3)cnc2[C@H](C)OC)c2c3cc(ccc31)-c1csc(n1)C[C@H](NC(=O)[C@H]1C[C@@H]1C)C(=O)N1CCC[C@H](N1)C(=O)OCC(C)(C)C2 | 385 nM |  | 45 µM (≈ 38.5 µg/mL) | 3.4 nM | 7.7 nM | 130 nM | 152 nM | 103 min | 2.8 nM | 9.4 nM |  | 6.1 nM | 1 ×10⁻⁶ cm/s | 78 nM | 9 | 0.8 nM | 54 nM | > 10 µM | 1.8 nM | 4.7 | bioavailability [21]: 57%; bioavailability [22]: 71%; clearance [23]: 30 mL/min/kg; clearance [24]: 6.67 mL/min/kg
4 | CCn1c(-c2cc(N3CCN(C4CC4)CC3)cnc2[C@H](C)OC)c2c3cc(ccc31)-c1csc(n1)C[C@H](NC(=O)[C@H]1[C@@H]3COC[C@@H]31)C(=O)N1CCC[C@H](N1)C(=O)OCC(C)(C)C2 | 175 nM |  | 20 µM (≈ 17.3 µg/mL) | 0.9 nM | 4.1 nM | 216 nM | 76 nM | 60 min | 2.1 nM | 1.9 nM |  | 4.9 nM | 0.9 ×10⁻⁶ cm/s | 43 nM | 7 | 0.5 nM | 31 nM | 8.37 µM | 0.8 nM | 5.2 | bioavailability [21]: 88%; bioavailability [22]: 63%; clearance [23]: 6.67 mL/min/kg; clearance [24]: 6.67 mL/min/kg
5 | CCn1c(-c2cccnc2[C@H](C)OC)c2c3cc(ccc31)-c1cccc(c1)C[C@H](NC(=O)[C@H](C(C)C)N(C)C(C)=O)C(=O)N1CCC[C@H](N1)C(=O)OCC(C)(C)C2 | 26100 nM | 4.93 µM |  |  |  | 1150 nM |  |  | 1140 nM | > 10000 nM | 10.7 µM | 4410 nM |  | 3520 nM |  |  | 2040 nM |  | 1530 nM |  | Kd [11]: 2820 nM
6 | CCn1c(-c2cccnc2[C@H](C)OC)c2c3cc(ccc31)-c1cccc(c1)C[C@H](NC(=O)[C@H](C(C)C)N(C)C(=O)[C@H]1CCN(C(C)=O)C1)C(=O)N1CCC[C@H](N1)C(=O)OCC(C)(C)C2 | 12900 nM | 5.83 µM |  |  |  | 897 nM | 5100 nM |  | 948 nM | 1140 nM | 3.55 µM | 1860 nM |  | 4400 nM |  |  | 1600 nM |  | 1090 nM |  | IC50 [25]: 3.5 µM; IC50 [26]: 3.5 µM; IC50 [27]: 8.4 µM; Kd [11]: 2050 nM; IC50 [28]: 1300 nM; IC50 [29]: 3.2 µM
7 | CCn1c(-c2cccnc2[C@H](C)OC)c2c3cc(ccc31)-c1csc(n1)C[C@H](NC(=O)[C@H](C(C)C)N(C)C(=O)N1CC(OC)C1)C(=O)N1CCC[C@H](N1)C(=O)OCC(C)(C)C2 | 1160 nM |  | 12 µM (≈ 10.3 µg/mL) | 5 nM | 61 nM | 283 nM | 200 nM | 19 min | 16 nM | 22 nM |  |  | 0.6 ×10⁻⁶ cm/s |  | 9.6 | 3 nM | 78 nM | > 10 µM | 7 nM | 4.8 | inhibition in vivo at 200 mg/kg [30]: 94%; IC50 (ASPC1): 76 nM; clearance [10]: 33.3 mL/min/kg; inhibition in vivo at 100 mg/kg [31]: 87%; half-life [15]: 90 min; bioavailability [16]: 17%
